# Data as given in article PMC12624955, “Exploring diarylheptanoid derivatives to target LIMK1 as potential agents against colorectal cancer” (Journal of Enzyme Inhibition and Medicinal Chemistry, 2025).
# Columns and labels:
# HCT-116 = assay: Analysis of cell cycle by flow cytometry; format: cell-based; details: HCT116; 1, 3, 10, and 30 μM for 72 h
# Protocol: (§1) Cells were seeded in six-well plates at a density of 5 × 10^5 cells/well in a 2 ml culture medium and treated with compounds at the indicated concentration for 72 h. After treatment, cells were collected and fixed with 75% (v/v) ice-cold ethanol at −20 °C for 20 min. The cells were then centrifuged to remove the buffer, resuspended, and stained with 0.5 ml of propidium iodide (PI) staining buffer (80 µg/ml PI, […] RNase A, and 1% Triton X-100 in PBS). The cell cycle distribution was analysed using a BD Accuri™ Flow cytometer and software (Becton Dickinson, Mountain View, CA, USA).
# HT-29 = assay: Analysis of cell cycle by flow cytometry; format: cell-based; details: 1, 3, 10, and 30 μM for 72 h
# Protocol: as §1
# [1] = system: panel of 40 kinases from various families; assay: Kinase panel screening (SelectScreen), whole panel; format: biochemical; details: all 40 kinases; 1 μM
# Protocol: Kinase panel screening was carried out using the SelectScreen Kinase Assay (Thermo Fisher Scientific, Waltham, MA, USA). Three complementary assay formats were applied: the Z′-LYTE kinase assay, LanthaScreen Eu kinase binding assay, and Adapta Universal kinase assay. The kinases selected for this study and the corresponding assay formats are summarised in Supplementary Table S1.
# The Z′-LYTE Kinase Assay (Thermo Fisher Scientific, Waltham, MA, USA) was used to evaluate selected kinases’ activity, according to the manufacturer’s instructions (https://www.thermofisher.com/tw/zt/home/industrial/pharma-biopharma/drug-discovery-development/target-and-lead-identification-and-validation/kinasebiology/kinase-activity-assays/z-lyte/z-lyte-reactivity-table.html). This endpoint assay quantifies kinase activity by detecting peptide substrate phosphorylation. Briefly, a 2× mixture of selected kinase and relevant substrate was prepared in kinase buffer (0.01% polyoxyethylene lauryl ether (BRIJ-35), 50 mM 4-(2-hydroxyethyl)-1-piperazineethanesulfonic acid (HEPES), pH 7.5, 1 mM ethylene glycol-bis(β-aminoethyl ether)-N,N,N′,N′-tetraacetic acid (EGTA), and 10 mM MgCl2). After 1 h incubation at room temperature, 5 μl of 1:128 diluted development reagent solution was added, followed by an additional 1 h incubation. Fluorescence was recorded using a multimode plate reader. […]
compound,measurement,setting,value
"O=C(/C=C/c1ccc(O)c(O)c1)CCCCn1ccc2c(O)cccc21 [Compound 13a, (E)-1-(3,4-dihydroxyphenyl)-7-(4-hydroxy-1H-indol-1-yl)hept-1-en-3-one]",G0/G1 phase population,HCT-116,decrease in the G0/G1 phase
same,S phase population,HCT-116,dose-dependent increase in the S phase
same,population of Sub-G1 cells,HCT-116,increased in a dose-dependent manner
same,population of Sub-G1 cells,HT-29,increased in a dose-dependent manner
same,inhibition percentages across the panel of 40 kinases,[1],below 50%
